Counter-ions that a name gives are not always drawn.
Structure (SMILES) | melting point
CCN1CCCN(c2nc(-c3ccc(OC)cc3)cc3ccccc23)CC1 (as salt: hydrochloride) | 124 to 125 °C
CCN1CCN(c2nc(C#Cc3cncc(CCCOC)c3)cc3ccccc23)CC1 (as salt: hydrochloride) [Example 186, 1-(1-Ethylpiperazin-4-Yl)-3-[3-(3-Methoxypropyl)-5-Pyridyl]Ethynylisoquinoline] | 135 to 140 °C
CCN1CCN(c2nc(-c3nc(C)c(CCO)s3)cc3ccccc23)CC1 (as salt: hydrochloride) | 149 to 154 °C
CCN1CCN(c2nc(-c3cccc(OCCO)c3)cc3ccoc23)CC1 (as salt: hydrochloride) [Example 298, 7-(1-ethylpiperazin-4-yl)-5-[3-(2-hydroxyethoxy)phenyl]furo[2,3-c]pyridine dihydrochloride] | 117 to 121 °C
CCN1CCN(c2nc(-c3ccc(OCCO)nc3)cc3ccccc23)CC1 (as salt: hydrochloride) [Example 125, 1-(1-Ethylpiperazin-4-yl)-3-[2-(2-Hydroxyethoxy)Pyridin-5-yl]Isoquinoline] | 137 to 142 °C
CCN1CCN(c2nc(-c3ccc(OCCO)cc3)cc3ccc(F)cc23)CC1 (as salt: hydrochloride) | 225 to 229 °C
CCN1CCN(c2nc(C(C)c3ccc(OC)cc3)cc3ccccc23)CC1 (stereo not drawn) (as salt: oxalate) [Example 102, 3-[α-Methyl-(4-methoxybenzyl)]-1-(4-ethylpiperazin-1-yl)isoquinoline Oxalate] | 86 to 88 °C
COc1ccc(-c2cc3ccccc3c(N3CCN(C4CC4)CC3)n2)cc1 (as salt: hydrochloride) [Example 239, 1-(1-cyclopropylpiperaziin-4-yl)-3-(4-methoxyphenyl)isoquinoline dihydrochloride] | 138 to 143 °C
CCN1CCN(c2nc(-c3csc(CO)c3)cc3ccccc23)CC1 (as salt: hydrochloride) [Example 161, 1-(1-ethylpiperazin-4-yl)-3-(2-hydroxymethylthiophen-4-yl)isoquinoline dihydrochloride] | 170 °C
CC(C)(O)COc1ccc(-c2cc3sccc3c(N3CCN(CCF)CC3)n2)cc1 (as salt: hydrochloride) [Example 294, 6-[4-(2-methyl-2-hydroxypropoxy)phenyl]-4-[4-(2-fluoroethyl)piperazin-1-yl]thieno[3,2-c]pyridine] | 135 to 137 °C

Results, then the compound that gave them:

melting point | Structure (SMILES)
226.5 to 227.5 °C (dec.) | CCCNS(=O)(=O)c1ccc(-c2cc3ccccc3c(N3CCN(CC)CC3)n2)cc1 (as salt: hydrochloride) [Example 353, 1-(4-ethylpiperazin-1-yl)-3-[4-(N-propylsulfamoyl)phenyl]isoquinoline dihydrochloride]
136.5 to 138 °C | CCCNC(=O)c1ccc(-c2cc3ccsc3c(N3CCN(CC)CC3)n2)cc1 (as salt: hydrochloride) [Example 449, 7-(4-ethylpiperazin-1-yl)-5-[4-(N-propylcarbamoyl)phenyl]thieno[2,3-c]pyridine dihydrochloride]
216.5 to 218 °C (dec.) | CCN1CCN(c2nc(-c3ccc(S(C)(=O)=O)cc3)cc3ccccc23)CC1 (as salt: hydrochloride) [Example 342, 1-(4-ethylpiperazin-1-yl)-3-(4-methylsulfonylphenyl)isoquinoline dihydrochloride]
155 to 156 °C | CCN1CCN(c2nc(-c3ccc(S(=O)(=O)N(C)C)cc3)cc3ccccc23)CC1 (as salt: hydrochloride) [Example 362, 1-(4-ethylpiperazin-1-yl)-3-[4-(N,N-dimethylsulfamoyl)phenyl]isoquinoline dihydrochloride]
216.5 to 218 °C (dec.) | CCN1CCN(c2nc(-c3ccc(OCC(O)COC)cc3)cc3ccccc23)CC1 (stereo not drawn) (as salt: hydrochloride) [Example 343, 1-(4-ethylpiperazin-1-yl)-3-[4-(2-hydroxy-3-methoxypropoxy)phenyl]isoquinoline dihydrochloride]

Reference: patent US6875761B2 (Eisai Co., Ltd., priority 1997, dated 2005)
